# Data reported in patent US20260198497A1, “A BENZENE RING-SUBSTITUTED PYRIMIDINECARBOXYLIC ACID COMPOUND, PREPARATION METHOD THEREFOR, HERBICIDAL COMPOSITION AND APPLICATION THEREOF” (QINGDAO KINGAGROOT CHEMICAL COMPOUND CO., LTD., priority 2023, published 2026).
# Columns and labels:
# [1] = system: paddy rice (japonica rice); conditions: japonica, paddy rice, in vivo, 21 days
# Text: (§1) The criteria for activity levels of plant damage (i.e., growth control rate) are as follows: • Level 9: completely dead; • Level 8: growth control rate is greater than or equal to 90% and less than 100%; • Level 7: growth control rate is greater than or equal to 80% and less than 90%; • Level 6: growth control rate is greater than or equal to 70% and less than 80%; • Level 5: growth control rate is greater than or equal to 50% and less than 70%; • Level 4: growth control rate is greater than or equal to 30% and less than 50%; • Level 3: growth control rate is greater than or equal to 20% and less than 30%; • Level 2: growth control rate is greater than or equal to 10% and less than 20%; • Level 1: growth control rate is less than 10%; • Level 0: no effect.
# (§2) The above growth control rates are fresh weight control rates.
# In addition, after being loaded into the 1/1,000,000 ha pot, the paddy field soil was leveled to keep the water storage at a depth of 3-4 cm. The paddy rice (japonica rice) at 3-leaf stage was transplanted at a transplanting depth of 3 cm on the next day. The compounds of the present invention were treated in the same manner as above on the 5th day after the transplantation.
# (§3) The effects were evaluated according to the above-mentioned criteria for activity levels.
# [2] = system: Veronica; test: Post-emergence test on weeds; assay type: in vivo; parameters: key: 0 = no effect, 9 = completely dead (levels by growth control rate); conditions: 30 g a.i./ha, 3 weeks after application
# Text: as §1, §2
# (§4) Monocotyledonous and dicotyledonous weed seeds (Descurainia sophia, Capsella bursa-pastoris, Abutilon theophrasti, Galium spurium, Stellaria media, Lithospermum arvense, Rorippa indica, Alopecurus aequalis, Alopecurus japonicus, Eleusine indica, Beckmannia syzigachne, Sclerochloa dura, Erigeron canadensis, Phleum paniculatum, Veronica, Bromus japonicus, Aegilops tauschii, Phalaris arundinacea, Amaranthus retroflexus, Chenopodium, Commelina communis, Cichorium endivia, Convolvulus arvensis, Cirsium arvense, Solanum nigrum, Acalypha australis, Digitaria sanguinalis, Echinochloa crusgalli, Setaria viridis, Setaria pumila, Leptochloa chinensis, Monochoria vaginalis, Sagittaria trifolia, Schoenoplectiella juncoides, Cyperus rotundus, Cyperus iria, Cyperus difformis, Fimbristylis, Portulaca oleracea, Xanthium sibiricum, Ipomoea nil, Eschenbachia japonica, etc.) and major crop seeds (wheat, maize, paddy rice, soybean, cotton, oilseed rape, millet, sorghum, potato, sesame, castor plant, Chinese cabbage, radish, etc.) were placed in plastic pots filled with soil and then covered with 0.5-2 cm of soil to allow them to grow in a favorable greenhouse environment. Two weeks after sowing, the test plants were treated at the stage of 2-3 leaves. The test compounds of the present invention were individually dissolved with acetone, then added with Tween® 80, with 1.5 L/ha of methyl oleate emulsifiable concentrate as a synergist, diluted into solution of a certain concentration using a certain amount of water, and sprayed to plants using a spray tower. After drug application, the experimental results on weeds were collected after 3 weeks of cultivation in a greenhouse. The compounds were applied at 120, 60, 30, and 15 g a.i./ha in triplicate, and the results were averaged.
# [3] = system: Monochoria vaginalis; test: Control effect evaluation on weeds in paddy fields; assay type: in vivo; conditions: 75 g a.i./ha, paddy pot, 14th day after treatment, seeds resistant to pyrazosulfuron-ethyl
# Text: as §1, §2
# (§5) After paddy field soil was loaded into a 1/1,000,000 ha pot, the seeds of Monochoria vaginalis, Pontederia korsakowii and Bidens tripartita were sowed and gently covered with soil, then left to stand in a greenhouse with water storage of 0.5-1 cm deep. The tuber of Sagittaria trifolia was planted on the next day or 2 days later. The water storage was kept at a depth of 3-4 cm thereafter. When the Monochoria vaginalis, Pontederia korsakowii and Bidens tripartita reached their 0.5-leaf stages and the Sagittaria trifolia reached the primary leaf stage, WP or SC aqueous dilutions of the compounds of the present invention formulated according to customary formulation methods were homogeneously dripped for treatment to the specified effective amount using pipettes.
# as §3
# [4] = system: Bidens tripartita; test: Control effect evaluation on weeds in paddy fields; assay type: in vivo; conditions: 75 g a.i./ha, paddy pot, 14th day after treatment, seeds resistant to pyrazosulfuron-ethyl
# Text: as §1, §2, §5, §3
# [5] = system: Pontederia korsakowii; test: Control effect evaluation on weeds in paddy fields; assay type: in vivo; conditions: 75 g a.i./ha, paddy pot, 14th day after treatment, seeds resistant to pyrazosulfuron-ethyl
# Text: as §1, §2, §5, §3
# [6] = system: Radish; test: Post-emergence test, crop safety; conditions: in vivo, 3 weeks
# Text: as §1, §2, §4
# [7] = system: Chinese cabbage; test: Post-emergence test, crop safety; conditions: in vivo, 3 weeks
# Text: as §1, §2, §4
# [8] = system: Oilseed rape; test: Post-emergence test, crop safety; conditions: in vivo, 3 weeks
# Text: as §1, §2, §4
# [9] = system: Maize; test: Post-emergence test, crop safety; conditions: in vivo, 3 weeks
# Text: as §1, §2, §4
# [10] = system: Paddy rice; test: Post-emergence test, crop safety; conditions: in vivo, 3 weeks
# Text: as §1, §2, §4
# [11] = system: Wheat; test: Post-emergence test, crop safety; conditions: in vivo, 3 weeks
# Text: as §1, §2, §4
# [12] = system: Monochoria vaginalis; test: Activity assay of compositions, post-emergence spray of stems and leaves; assay type: in vivo; conditions: for Control effect of B applied alone in a corresponding dose (%): 21 days
# Method: (§6) The required active ingredient B was purchased from a reagent company or a technical material manufacturer or synthesized by a conventional method. […] The technical materials were all dissolved with acetone solvents and diluted with aqueous solution of 0.1% Tween® 80 emulsifier, which should be used immediately after dilution.
# (§7) Weeds were cultivated by a pot culture method. […] Weed seeds with plump and uniform grains were selected, soaked in lukewarm water at 25° C. for 6 hours, and accelerated to germinate in a 28° C. biochemical incubator (in darkness). The weed seeds that had just germinated were evenly placed on the surface of the soil and then covered with 0.5-1 cm soil according to the sizes of seeds.
# (§8) The weeds were cultured in a controllable sunlight greenhouse at 20-30° C., in natural light, and with relative humidity of 57%-72%. The soil was loam with an organic matter content of 1.63%, a pH value of 7.1, alkali-hydrolyzable nitrogen of 84.3 mg/kg, rapidly available phosphorus of 38.5 mg/kg, and rapidly available potassium of 82.1 mg/kg.
# (§9) Each treatment was repeated 4 times for 3 pots. Each pot was seeded with 20 weed seeds.
# (§10) The drugs were applied once in total in the experiment. When at the stage of 1.5-2 leaves, the weeds were thinned out to maintain 10 strains per pot. Thirty strains were kept in each treatment and then continued to be cultured until the Erigeron canadensis reached 10 cm tall and other weeds in their 3-4 leaf stage for further treatment.
# (§11) The well-cultured test materials were evenly placed on a 0.5 m^2 platform and foliage-sprayed by the 3WP-2000-type walking spray tower at a dosage of […] and a spray pressure of 0.3 MPa. After all the drug solution was sprayed, the air valve was closed. And 30 seconds later, the door of the spray tower was opened, and the nutritional bowl was taken out. Next, the air valve was opened, and the spray tube was cleaned by spraying 50 ml of water. The test materials were transferred to and routinely cultured in a greenhouse after the treatment.
# (§12) A method for investigating absolute numbers was employed. The whole seedlings of the survival weeds were cut along the soil surface with a blade, and the fresh weight of the weeds was weighed by an analytical balance. For dead weeds, the fresh weight thereof was considered zero.
# (§13) The investigation was performed 21 days after the treatment for once in total.
# (§14) The theoretical fresh weight inhibition rate of a mixed combination of each treatment was calculated by the Gowing method (E0=X+Y−X*Y/100). Then compared with the measured inhibition rate (E), the type of the combined action of the combination of the two on weeds was evaluated, which was a synergistic effect when E−E0>10; an antagonistic effect when E−E0<−10%; an additional effect when −10≤E−E0≤100. An optimal ratio was determined according to factors such as the actual control effects, characteristics of herbicides, balance of the formulation, etc. In the formula, X represents the fresh weight inhibition rate of the active ingredient A in a dosage of P; Y represents the fresh weight inhibition rate of the active ingredient B in a dosage of Q. The statistical results are shown in Table 5 below.
# [13] = system: Lindernia procumbens; test: as above; assay type: in vivo; conditions: for Control effect of B applied alone in a corresponding dose (%): 21 days
# Text: (§15) The required active ingredient B was purchased from a reagent company or a technical material manufacturer or synthesized by a conventional method. The active ingredient A was Compound 74 in Table 1. The technical materials were all dissolved with acetone solvents and diluted with aqueous solution of 0.1% Tween® 80 emulsifier, which should be used immediately after dilution.
# as §7, §8, §9, §10, §11, §12, §13, §14
# [14] = system: Euphorbia helioscopia; test: as above; assay type: in vivo; conditions: A 3 g a.i./ha, fresh weight inhibition, 21 days after treatment, listed as A
# Text: as §15, §7, §8, §9, §10, §11, §12, §13, §14
# [15] = system: Veronica; test: as above; assay type: in vivo; conditions: A 3 g a.i./ha, fresh weight inhibition, 21 days after treatment
# Method: as §6, §7, §9, §10, §11, §12, §13
# as §14, with “Then compared with the measured inhibition rate (E), the type of the combined action of the combination of the two on weeds was evaluated, which was a synergistic effect when E−E0>10; an antagonistic effect when E−E0<−10%; an additional effect when −10≤E−E0≤100.” left out
# [16] = A 3 g a.i./ha, fresh weight inhibition, 21 days after treatment
"activity level, Paddy rice [1]",Structure (SMILES),"activity level of plant damage (growth control rate), Veronica [2]","activity level, Monochoria vaginalis [3]","activity level, Bidens tripartita [4]","activity level, Pontederia korsakowii [5]","activity level of plant damage (growth control rate), Radish [6]","activity level of plant damage (growth control rate), Chinese cabbage [7]","activity level of plant damage (growth control rate), Oilseed rape [8]","activity level of plant damage (growth control rate), Maize [9]","activity level of plant damage (growth control rate), Paddy rice [10]","activity level of plant damage (growth control rate), Wheat [11]",further results
0,COc1c(N)nc(-c2ccc(C(F)(F)F)c(OC)c2F)nc1C(=O)OCC(F)(F)F [Compound 62],9,9,9,9,0,0,0,0,0,0,–
0,COC(=O)c1nc(-c2ccc(C(F)(F)F)c(OC)c2F)nc(N)c1OC [Compound 3],9,9,9,9,0,0,0,0,0,0,–
0,CCOC(=O)c1nc(-c2ccc(C(F)(F)F)c(OC)c2F)nc(N)c1OC [Compound 24],9,9,9,9,0,0,0,0,0,0,–
–,"CC(C)N1C(=O)c2ccccc2NS1(=O)=O [Bentazone, bentazone]",–,–,–,–,–,–,–,–,–,–,Control effect of B applied alone in a corresponding dose (%) ([12]; B 150 g a.i./ha): 45.2%; Control effect of B applied alone in a corresponding dose (%) ([12]; B 300 g a.i./ha): 60.5%
0,COc1c(N)nc(-c2ccc(C(F)(F)F)c(OC)c2F)nc1C(=O)OC1CC1 [Compound 116],9,9,9,9,0,0,0,0,0,0,–
–,COCCOC(=O)c1nc(-c2ccc(C(F)(F)F)c(OC)c2F)nc(N)c1OC [Compound 74],9,–,–,–,0,0,0,0,0,0,"Control effect of A applied alone in a corresponding dose (%) [13, 16]: 37.7%; Control effect of A applied alone in a corresponding dose (%) [14]: 58.0%; Control effect of A applied alone in a corresponding dose (%) [12, 16]: 66.4%; Control effect of A applied alone in a corresponding dose (%) [15]: 62.3%"
–,CC(C)C12CCC(C)(O1)C(OCc1c(F)cccc1Br)C2 (stereo not drawn),–,–,–,–,–,–,–,–,–,–,Control effect of B applied alone in a corresponding dose (%) ([13]; B 7.5 g a.i./ha): 42.8%; Control effect of B applied alone in a corresponding dose (%) ([13]; B 15 g a.i./ha): 60.7%
–,"CCC(=O)Nc1ccc(Cl)c(Cl)c1 [Propanil, propanil]",–,–,–,–,–,–,–,–,–,–,Control effect of B applied alone in a corresponding dose (%) ([12]; B 600 g a.i./ha): 22.1%; Control effect of B applied alone in a corresponding dose (%) ([12]; B 1200 g a.i./ha): 37.4%
0,COc1c(N)nc(-c2ccc(C(F)(F)F)c(OC)c2F)nc1C(=O)ON=C(C)C [Compound 106],9,9,9,9,0,0,0,0,0,0,–
